Assay results published in patent publication US20250263370A1 (Tay Therapeutics Limited, priority 2022, published 2025).
Read-outs that look alike come from different tables or passages of the source.

Assays:
BRD4 BD2 = BRD4 BD2 (Homo sapiens (Human), UniProt O60885); assay: NanoBRET bromodomain assay, NanoLuc-BRD4-BD2 fusion in HEK293 cells; conditions: for Fold selectivity: IC50 for BRD4 BD1 divided by IC50 for BRD4 BD2, qualitative if an IC50 is at the upper limit; for IC50: BRD4 BD2 (IC50), NanoBRET, HEK293 cells, top concentration 10 μM;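 on all read-outs here: tracer displacement BRET read in transfected cells after 2 h compound exposure at 37 °C, signal in milliBRET units corrected against no-tracer background wells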
BRD4 BD1 = BRD4 BD1 (Homo sapiens (Human), UniProt O60885); assay: NanoBRET bromodomain assay, NanoLuc-BRD4-BD1 fusion in HEK293 cells; format: cell-based; conditions: top concentration 10 μM
Procedure: HEK293 cells were transfected using NanoLuc-BRD4-BD1 or NanoLuc-BRD4-BD2 fusion vectors and incubated at 37° C. in an atmosphere of 5% CO2 for 20-24 hours. The transfected cells were then dispensed into 96-well plates using 90 μl cell suspension per well containing 2×10^5 cells/mL in Opti-MEM and 1× final concentration of tracer. 90 μL per well of cell suspension without tracer was also dispensed into at least 3 wells as “No tracer control samples” for background correction. Serially diluted test compounds were prepared at 1000× concentration in DMSO and further diluted to 10× concentration in Opti-MEM. […] Plates were then incubated at 37° C. +5% 002 incubator for 2 hours. […] Donor emission (450 nm) and acceptor emission (610 nm) were measured using PHERAstar (BMG LabTech). For data analysis, the raw BRET ratio was generated and converted to milliBRET units with background correction using the formula: [(Acceptorsample/Donorsample−(Acceptorno tracer control/Donorno tracer control)]×1000. The mBU data was plotted as a function of compound concentration and IC50s for BRET assay were determined by nonlinear regression analysis of concentration response curves using the Collaborative Drug Discovery Vault software. The fold-selectivity was calculated by dividing the IC50 for BRD4 BD1 by the IC50 for BRD4 BD2.

[1] = Intrinsic clearance in liver microsomes, mouse; format: in vitro ADME; conditions: pH 7.4, Method 2, read-out: Half-Life (T1/2) (min), Mouse
Procedure: From stock solution of compound on 10 mM DMSO, a working solution of 0.1 mM is prepared by diluting the compound in DMSO. 6.25 μL of a 20 mg/mL solution of microsomes in PBS pH 7.4 buffer is added to 216.25 μL PBS pH 7.4 buffer (final microsome concentration—0.5 mg/mL). 25 μL of 10 mM solution of NADPH in PBS pH 7.4 buffer is added to the incubations (final NADPH concentration—1 mM). The mixture is pre-warmed to 37° C. for 10 minutes. 2.5 μL of test compound working solution is added (final compound concentration—1 μM with 1% DMSO). Aliquots of 30 μL are taken from the reaction solution at 0.5, 5, 15, 30 and 60 minutes. The reaction was stopped by the addition of 5 volumes of cold acetonitrile with IS (100 nM alprazolam, 200 nM caffeine and 100 nM tolbutamide). Samples were centrifuged at 3, 220 g for 40 minutes. Aliquots of 100 μL of the supernatant are mixed with 100 μL of ultra-pure H2O and used for LC-MS/MS analysis. The percent compound remaining at each time point is calculated with respect to that of the 0.5 min sample. The data are analysed to calculate half-life. Control experiments are run without NADPH and blank samples are prepared using DMSO without the test compound.
A 50 mM stock solution (in DMSO) is prepared for the compound. From the stock solution, a working solution of 0.5 mM is prepared by diluting the compound in DMSO. This concentration of working solution is prepared considering a final concentration of 1 uM with 0.1% DMSO. The compound (1 μL of working solution) is spiked in PBS with pH 7.4 ([…]) at a concentration of 1 μM. Subsequently, 110 μL of 10 mM NADPH is added (as a co-factor). The sample is incubated at 37° C. for 15 min. Following this, pre-warmed liver microsomes (27.5 μL; final protein conc. 0.5 mg/mL) are added. The samples are then incubated at 37° C. Aliquots of samples are withdrawn at 0, 5, 15, 30, 45 and 60 min. The reaction is stopped by using chilled acetonitrile containing internal standard. The samples are centrifuged, and the supernatants analysed by LC-MS/MS. The percent compound remaining at each time point is calculated with respect to that of the 0 min sample. The data are then analysed to calculate half-life and intrinsic clearance (CLint). Control experiments are run without NADPH and blank samples are prepared using DMSO without the test compound.

IL-22 = IL-22 levels by ELISA in stimulated human peripheral blood mononuclear cells; format: cell-based; conditions: for IC50: Homo sapiens, PBMC; for IC50 for IL-22 relative to GSK620 / Biomarker selectivity (IL-22 vs. CXCL10): human PBMC; for IC50 for IL-22 relative to GSK620: 72 hours; for Biomarker selectivity (IL-22 vs. CXCL10): from mean IC50
Procedure: (§1) CD2, CD3, and CD28 antibody-coated beads from the T-cell activation/expansion kit (Miltenyi Biotec) were added to the PBMC at a bead-to-cell ratio of 1:2.
(§2) The mixture of PBMCs and beads were seeded into the wells of the round-bottom 96-well plate at a concentration of 2×10^5 cells/well in a total volume of 200 μL. The cells were cultured for 72 hours at 37° C. and 5% CO2 and then supernatants were collected and IL-17A and IL-22 levels were measured by ELISA. […] The final compound concentration ranged from 30,000 nM to 0.005 nM and the final DMSO concentration per well was 0.3%. PBMCs were seeded at approximately 2×10^5 cells/well in the wells of the 96-well tissue culture plate in a total volume of 190 μL. The plate was incubated for 1 hour at 37° C. and 5% CO2. […] The cells were then cultured for 24 hours at 37° C. and 5% CO2. The supernatant was collected and CXCL10 levels were measured by ELISA.

CXCL10 = CXCL10 levels by ELISA in IFN-γ stimulated human peripheral blood mononuclear cells; format: cell-based; conditions: human PBMC
Procedure: The impact of Examples 23, 80, and 101 on IL-17A, IL-22, and CXCL10 levels was analyzed in cryopreserved human peripheral blood mononuclear cells (PBMC) by ELISA. […] For IL-17A and IL-22 assays, Examples 23, 80, and 101 were serially diluted from 10 mM in DMSO and further diluted in assay media to 100× the required final concentration, of which, 2 μL was added per well to a round-bottom 96-well tissue culture plate where the final DMSO concentration per well was 0.1%. CD2, CD3, and CD28 antibody-coated beads from the T-cell activation/expansion kit (Miltenyi Biotec) were added to the PBMC at a bead-to-cell ratio of 1:2.
The mixture of PBMCs and beads were seeded into the wells of the round-bottom 96-well plate at a concentration of 2×10^5 cells/well in a total volume of 200 μL. The cells were cultured for 72 hours at 37° C. and 5% CO2 and then supernatants were collected and IL-17A and IL-22 levels were measured by ELISA. For the CXCL10 assay, Examples 23, 80, and 101 were serially diluted from 10 mM in DMSO and further diluted in assay media to 100× the required final concentration, of which 2 μL was added per well to a 96-well tissue culture plate. The final compound concentration ranged from 30,000 nM to 0.005 nM and the final DMSO concentration per well was 0.3%. PBMCs were seeded at approximately 2×10^5 cells/well in the wells of the 96-well tissue culture plate in a total volume of 190 μL. The plate was incubated for 1 hour at 37° C. and 5% CO2. The cells were then stimulated with IFN-γ (15 ng/mL final concentration) in a volume of 10 μL. The cells were then cultured for 24 hours at 37° C. and 5% CO2. The supernatant was collected and CXCL10 levels were measured by ELISA.

IL-17A = IL-17A levels by ELISA in stimulated human peripheral blood mononuclear cells; format: cell-based; conditions: for IC50: Homo sapiens, PBMC; for IC50 for IL-17A relative to GSK620 / Biomarker selectivity (IL-17 vs. CXCL10): human PBMC; for IC50 for IL-17A relative to GSK620: 72 hours; for Biomarker selectivity (IL-17 vs. CXCL10): from mean IC50
Procedure: as §1, §2

[2] = Test Subject 2, read-out: IL-22 IC50
[3] = Test Subject 3, read-out: IL-22 IC50
[4] = mean of test subjects, read-out: IL-22 IC50 Mean
[5] = Test Subject 2, read-out: CXCL10 IC50
[6] = Test Subject 3, read-out: CXCL10 IC50
[7] = mean of test subjects, read-out: CXCL10 IC50 Mean
[8] = Test Subject 1, read-out: IL-17A IC50
[9] = Test Subject 3, read-out: IL-17A IC50
[10] = mean of test subjects, read-out: IL-17A IC50 Mean

SMILES	Fold selectivity (BRD4 BD2)	IC50 (BRD4 BD1) [nM]	half-life at 1 μM [1] [min]	IC50 (BRD4 BD2) [nM]	also measured
CNC(=O)c1[nH]c(C(=O)N[C@@H]2CC[C@@H](O)C2)cc1O[C@@H](C)c1ccccc1 (racemic) [Example 116, N^5-(trans-3-hydroxycyclopentyl)-N^2-methyl-3-((S)-1-phenylethoxy)-1H-pyrrole-2,5-dicarboxamide]	XX (Fold >50 and ≤200)	≥ 10000	> 60		
CNC(=O)c1[nH]c(-c2ncc(C)[nH]2)cc1O[C@@H](C)c1ccccc1 [Example 23, (S)-N-methyl-5-(5-methyl-1H-imidazol-2-yl)-3-(1-phenylethoxy)-1H-pyrrole-2-carboxamide]	XXX (Fold >200)	≥ 10000		< 50	BRD4 BD2 % Activity Remaining @ 10 uM (BRD4 BD2; 10 uM, (2) = second batch): 22%; IC50 (IL-22; Test Subject 1, read-out: IL-22 IC50): 8.5 nM; IC50 (IL-22; [2]): 1.2 nM; IC50 (IL-22; [3]): 4.3 nM; IC50 (IL-22; [4]): 4.7 nM; IC50 for IL-22 relative to GSK620 (IL-22): decreased mean IC50; Biomarker selectivity (IL-22 vs. CXCL10) (IL-22): >6429 Fold; selectivity to induction of CXCL10 relative to IL-17A and IL-22 (CXCL10): showed selectivity to induction of CXCL10 relative to IL-17A and IL-22; IC50 (CXCL10; [5]): > 30000 nM; IC50 (CXCL10; [6]): > 30000 nM; IC50 (CXCL10; [7]): > 30000 nM; IC50 (IL-17A; [8]): 104 nM; IC50 (IL-17A; Test Subject 2, read-out: IL-17A IC50): 9.6 nM; IC50 (IL-17A; [9]): 53.4 nM; IC50 (IL-17A; [10]): 24.5 nM; IC50 for IL-17A relative to GSK620 (IL-17A): decreased mean IC50; Biomarker selectivity (IL-17 vs. CXCL10) (IL-17A): >1226 Fold
CNC(=O)c1[nH]c(-c2cnn(C(C)C)c2)cc1O[C@@H](C)c1ccccc1 [Example 80, (S)-5-(1-isopropyl-1H-pyrazol-4-yl)-N-methyl-3-(1-phenylethoxy)-1H-pyrrole-2-carboxamide]	XXX (Fold >200)	≥ 10000		< 50	IC50 (IL-22; [2]): 9.3 nM; IC50 (IL-22; [3]): 30.7 nM; IC50 (IL-22; [4]): 20 nM; IC50 for IL-22 relative to GSK620 (IL-22): decreased mean IC50; Biomarker selectivity (IL-22 vs. CXCL10) (IL-22): >1500 Fold; selectivity to induction of CXCL10 relative to IL-17A and IL-22 (CXCL10): showed selectivity to induction of CXCL10 relative to IL-17A and IL-22; IC50 (CXCL10; Test Subject 1, read-out: CXCL10 IC50): > 30000 nM; IC50 (CXCL10; [5]): > 30000 nM; IC50 (CXCL10; [6]): > 30000 nM; IC50 (CXCL10; [7]): > 30000 nM; IC50 (IL-17A; [8]): 25.1 nM; IC50 (IL-17A; [9]): 187 nM; IC50 (IL-17A; [10]): 106 nM; IC50 for IL-17A relative to GSK620 (IL-17A): increased mean IC50; Biomarker selectivity (IL-17 vs. CXCL10) (IL-17A): >283 Fold
CNC(=O)c1[nH]c(C(=O)NC(C)C)cc1O[C@@H](C)c1ccccc1 [Example 105, (S)—N^5-isopropyl-N^2-methyl-3-(1-phenylethoxy)-1H-pyrrole-2,5-dicarboxamide]	X (Fold >2 and ≤50)	≥ 10000	> 60	200 to 1000	
CNC(=O)c1[nH]c(C(=O)NC2CC2)cc1O[C@@H](C)c1ccccc1 [Example 106, (S)—N^5-cyclopropyl-N^2-methyl-3-(1-phenylethoxy)-1H-pyrrole-2,5-dicarboxamide]	XX (Fold >50 and ≤200)	≥ 10000	> 60	50 to 200	
CNC(=O)c1[nH]c(C(=O)NC2COC2)cc1O[C@@H](C)c1ccccc1 [Example 107, (S)—N^2-methyl-N^5-(oxetan-3-yl)-3-(1-phenylethoxy)-1H-pyrrole-2,5-dicarboxamide]	XX (Fold >50 and ≤200)	≥ 10000	> 60	50 to 200	
CNC(=O)c1[nH]c(C(=O)N[C@H]2C[C@H](O)C2)cc1O[C@@H](C)c1ccccc1 [Example 108, N^5-(trans-3-hydroxycyclobutyl)-N^2-methyl-3-((S)-1-phenylethoxy)-1H-pyrrole-2,5-dicarboxamide]	XX (Fold >50 and ≤200)	≥ 10000	> 60	50 to 200	
CNC(=O)c1[nH]c(C(=O)NC2CC(F)(F)C2)cc1O[C@@H](C)c1ccccc1 [Example 109, (S)—N^5-(3,3-difluorocyclobutyl)-N^2-methyl-3-(1-phenylethoxy)-1H-pyrrole-2,5-dicarboxamide]	X (Fold >2 and ≤50)	≥ 10000	> 60	200 to 1000	
CNC(=O)c1[nH]c(C(=O)N[C@H]2CCC(F)(F)C2)cc1O[C@@H](C)c1ccccc1 [Example 110, N^5-((S)-3,3-difluorocyclopentyl)-N^2-methyl-3-((S)-1-phenylethoxy)-1H-pyrrole-2,5-dicarboxamide]	X (Fold >2 and ≤50)	≥ 10000	> 60	200 to 1000	
CNC(=O)c1[nH]c(C(=O)N[C@@H]2CCC(F)(F)C2)cc1O[C@@H](C)c1ccccc1 [Example 111, N^5-((R)-3,3-difluorocyclopentyl)-N^2-methyl-3-((S)-1-phenylethoxy)-1H-pyrrole-2,5-dicarboxamide]	X (Fold >2 and ≤50)	≥ 10000	> 60	200 to 1000	
CNC(=O)c1[nH]c(C(=O)NCCC(F)(F)F)cc1O[C@@H](C)c1ccccc1 [Example 112, (S)—N^2-methyl-3-(1-phenylethoxy)-N^5-(3,3,3-trifluoropropyl)-1H-pyrrole-2,5-dicarboxamide]	X (Fold >2 and ≤50)	≥ 10000	> 60	200 to 1000	
